The values below come from patent US20140309295A1, “ANTIEPILEPTIC, HYPOCHOLESTEROLEMIC AND NEUROPROTECTIVE COMPOUND” (NEURON BIOPHARMA, S.A., priority 2009, published 2014).

Series [1] concerns FVB/NHan mice inoculated with kainate (KA). The experiment in a line: Antiepileptic effect against kainate in mice (Racine scale). It is filed as in vivo. How it is done: All the animals included for the experimental process were 12-week old males of the FVB/NHan strain. The experiments were conducted strictly following the Guidance on the Operation of Animals (Scientific Procedures, Act. 1986). The animals had their respective quarantine period and were treated with maximum precaution to minimize possible contaminations for inoculations and handling.
The animals were intraperitoneally inoculated with 25 mg/kg of kainate (KA) dissolved in PBS. Thirteen animals were pre-treated 24 and 0.5 hours before inoculation with KA by means of intraperitoneal injection with PBS (PBS+KA administration regimen) and 6 were pre-treated 24 and 0.5 hours before inoculation with KA by means of intraperitoneal injection with NST0037 at a dose of 50 mg/kg (NST0037+KA administration regimen). After the inoculation, the animals were individually housed in trays to monitor them. The maximum epilepsy level of the animals was recorded during the observation according to the Racine scale every ten minutes and for at least 120 minutes post-inoculation (m.p.i.).

Series [2] has the same test system. The experiment in a line: Mortality caused by kainate in mice (Kaplan-Meier). It is filed as in vivo. The settings on record: 50 mg/kg i.p. The procedure: All the animals included for the experimental process were 12-week old males of the FVB/NHan strain. The experiments were conducted strictly following the Guidance on the Operation of Animals (Scientific Procedures, Act. 1986). The animals had their respective quarantine period and were treated with maximum precaution to minimize possible contaminations for inoculations and handling. […]
The deaths were recorded during the entire time the assay lasted, and the results are shown in FIG. 8 by means of Kaplan-Meier survival curves. […]

Series [3] in a line: Lethality by constant exposure in water (4 days) in adult zebrafish (OECD 203). It is filed as in vivo. Conditions: zebrafish, in vivo; 4 days of continuous treatment in water. The procedure:
(§1) The object of this assay is to determine the acute lethal toxicity of a substance on freshwater fish. Acute toxicity is the distinguishable adverse effect induced in an organism as a result of the exposure to a given substance for a short time period (days).
(§2) The deaths of the animals under study during the entire time of the assay were recorded as a toxicity parameter.
(§3) To that end, the fish that survived the treatment were sacrificed at 4 days post-treatment (previously anesthetized) and the samples (whole fish) were included in paraffin. The hematoxylin-eosin staining was subsequently performed in order to conduct the histopathological studies, obtaining a minimum of 6 longitudinal sections per animal, for the purpose of collecting different study areas of the same organ. The following organs were studied: brain, kidney, pancreas, intestine, eye, gills, ovary, testicle, muscle and liver.

Another series relates to adult zebrafish. The series is described as above. The series is classed as in vivo. Conditions: for histopathology: ovary / Mortality (dead animals/total): 4 days. The procedure:
as §1, §2, §3

Another series deals with zebrafish larvae. The experiment in a line: Acute toxicity assay in zebrafish larvae (24 hours). It is filed as in vivo, Danio rerio. Conditions: for Mortality (dead larvae/total): 1 day. How it is done: To evaluate the biosafety of compound NST0037, its toxicological effects on the zebrafish larvae model were analyzed by means of determining the safety parameters of the OECD C15 protocol.
The fertilized eggs were obtained by natural mating of the zebrafish (Danio rerio, AB strain). A total of 8-10 pairs were used for each cross and a total of 200-250 eggs were generated on average per pair. The eggs were collected immediately after spawning and were washed with dilution water (CaCl2.2H2O2 0.29 g/L, MgSO4.7H2O2 0.12 g/L, NaHCO3 0.065 g/L, KCl 0.006 g/L), the pH being adjusted to 7.8±0.2, in accordance with EC Regulation 440/2008, method C.1, and were deposited in a Petri dish.
The embryos were developed normally until 96 hours post-fertilization in their growth medium. […] […]. Each experiment was performed in triplicate.
The studies were conducted for 24 hours of treatment, thus performing an acute toxicity assay. […].
After the time of exposure of the substances under study, the record of the mortality of the larvae was determined. […].
[…]. The percentage of healthy larvae was defined as the number of live larvae without symptoms of external physiopathological anomalies (morphological and/or behavioral), the latter being a parameter determining the biosafety of a substance under study and is complementary to the survival rates and to LD50. […].
The anomalies recorded in the study are described below: • Thrombosis in the yolk sac: it is a clot inside a blood vessel, in this case of any vessel irrigating the yolk. • Cardiac thrombosis: occurs in a cardiac vessel. • Cardiac edema (or hydrops): accumulation of fluid in the intercellular tissue space and also in the cavities of the organism. In the case of the heart, it causes the accumulation of fluid in the pericardial sac.

As usually defined, the LD50 is the dose expected to kill half of the subjects tested. High values mean a less toxic substance, low ones a more toxic substance.

Take `CCC(CC)C(=O)O[C@H]1C[C@@H](C)C=C2C=C[C@H](C)[C@H](CC[C@@H]3C[C@@H](O)CC(=O)O3)[C@H]21` [NST0037, (1S,2S,6R,8S,8aR)-1,2,6,7,8,8a-hexahydro-3,7-dimethyl-8-[2-[(2R,4R)-tetrahydro-4-hydroxy-6-oxo-2H-pyran-2-yl]ethyl]-1-naphthalenyl-2-ethyl-butyrate]: the “epileptogenic symptoms from 100 m.p.i.” value in series [1] (NST0037+KA regimen) is “caused the disappearance of the epileptogenic symptoms”. In addition, the “epilepsy level on the Racine scale” value in series [1] (NST0037+KA, 120 minutes observation) is listed as < 3. Moreover, the “mortality caused by KA (survival)” value in series [2] (NST0037+KA+NST0037 regimen) is “protected against death”. In addition, the “survival of the animals vs PBS+KA+PBS” value in series [2] (PBS+KA+NST0037 regimen) is “increases”. Besides, the LD50 at 4 days in series [3] is > 100 mg/kg. The results for the “histopathology: ovary” value in the series with adult zebrafish (30 mg/kg) and in the series with adult zebrafish (100 mg/Kg) were “not being observed” and “presented ovarian damage”, respectively. For the same compound, the “Mortality (dead animals/total)” value is on record as 0/7 in the series on adult zebrafish (Dose 1 mg/kg); 0/7 in the series on adult zebrafish (Dose 3.2 mg/kg); 0/7 in the series on adult zebrafish (Dose 10 mg/kg); 0/7 in the series on adult zebrafish (Dose 32 mg/kg); 1/7 with adult zebrafish (Dose 100 mg/kg). The same compound registered a percentage of mortality with adult zebrafish (day 4 post-treatment (100 mg/kg group)) of 14%. The “Mortality (dead larvae/total)” value in the series on zebrafish larvae (Dose 10 mg/Kg), in the series on zebrafish larvae (Dose 30 mg/Kg), with zebrafish larvae (Dose 100 mg/Kg), in the series with zebrafish larvae (Dose 300 mg/Kg) and in the series on zebrafish larvae (Dose 1000 mg/Kg) was 0/30 in each case. For the same compound, the “percentage of healthy larvae” value with zebrafish larvae (highest study dose (1000 mg/Kg), 24 hours) is reported as 67.9±3.3%.
